From EP4702978A1, “AGENT FOR TREATING OR PREVENTING AMYOTROPHIC LATERAL SCLEROSIS” (Socium Inc., priority 2023, dated 2024)
“Also recorded” adds a separate entry of the source. Like-named read-outs stand apart in the source and are kept apart here.

Assays:
[1] = system: TDP-43 in motor neurons derived from iPS cells of healthy subjects; assay: Soluble and insoluble fractions of TDP-43 in motor neurons derived from iPS cells of healthy subjects, Western blot (Example 3); type: cell-based, human; details: 10 µmol/L, cultured for 20 days, Figure 7
[2] = Reported pharmacokinetics of D-cycloserine after oral administration to humans; type: in vivo; details: estimated; 15 mg orally administered twice daily
[3] = cited from earlier work
[4] = system: TDP-43 in motor neurons derived from iPS cells of ALS patients; assay: Soluble and insoluble fractions of TDP-43 in motor neurons derived from iPS cells of ALS patients, Western blot (Example 3); type: cell-based, human; details: 10 µmol/L, cultured for 20 days; for bands for soluble and insoluble fractions of TDP-43: Figure 7; for average proportion of insoluble fractions of TDP-43: three experiments, DMSO control about 46.1%, Figure 8
TDP-43 = assay: Soluble and insoluble fractions of TDP-43 in TDP-43-transfected Neuro2a cells, Western blot (Example 2); type: cell-based, Mouse; details: 10 µmol/L added 6 hours after transfection, cultured for 12 hours; for soluble fractions versus insoluble fractions of TDP-43 in the cells: Figure 5; for proportion of insoluble fractions based on a total number of soluble fractions and insoluble fractions of TDP-43: Figure 6
Experimental: (§1) Mouse neuroblastoma (Neuro2a) cells were seeded on a dish. The Neuro2a cells were cultured in a culture medium containing DMEM+10% FBS at 37°C in the presence of 5% CO2. On the first day after seeding, differentiation into neurons was initiated. Differentiation into neurons was performed in a culture medium containing DMEM+2% FBS+20 µmol/L retinoic acid. On the fourth day after seeding, cells were transfected with synthesized TDP-43 mRNA by a lipofection method. Cells were sampled at 6 hours, 9 hours, 12 hours, 15 hours, 18 hours, and 21 hours after transfection. […] For sampling, cells were lysed in an RIPA buffer and centrifuged at 22,000 Xg for 30 minutes at 4°C, the supernatant was used as the soluble fraction, the precipitate was used as the insoluble fraction, and equal volumes of a 2×SDS sample buffer were added to the respective fractions and heated at 95°C for 5 minutes to prepare electrophoresis samples. The electrophoresis samples were subjected to electrophoresis using a polyacrylamide gel, TDP-43 was then transferred to a PVDF membrane. TDP-43 was detected through chemiluminescence using anti-TDP-43 antibodies as primary antibodies and HRP-conjugated anti-rabbit antibodies as secondary antibodies. […] The insoluble fractions of TDP-43 indicate the aggregation of TDP-43.
Neuro2a cells were seeded on a dish. On the first day after seeding, differentiation into neurons was initiated. On the fourth day after seeding, cells were transfected with the TDP-43 gene.

[5] = cited from earlier work; remark: listed apart in the source
[6] = system: Neuro2a cells transfected with the TDP-43 gene; assay: Inhibition of cell death in neuronally differentiated Neuro2a cells transfected with the TDP-43 gene (Example 1); type: cell-based, Mouse; details: evaluated 7 days after transfection; for EC50: Mus musculus, N2a, compound added 5 hours after transfection, 10-10,000 nmol/L, relative viability, read-out: EC50 (inhibition of cell death in nerve cells forcibly expressing TDP-43); for inhibition of cell death: cells transfected with the TDP-43 gene, Figures 3C and 4
Experimental: as §1
Neuro2a cells were seeded on a dish. On the first day after seeding, differentiation into neurons was initiated. On the fourth day after seeding, cells were transfected with the TDP-43 gene. […] In addition, as a control, 10 nmol/L, 50 nmol/L, 100 nmol/L, 500 nmol/L, 1,000 nmol/L, 5,000 nmol/L, or 10,000 nmol/L of ropinirole was added to a culture medium.
The proportion of dead cells was evaluated 7 days after the cells were transfected with the TDP-43 gene.

Row | SMILES | bands for soluble and insoluble fractions of TDP-43 [1] | trough value [2] [nmol/L] | Cmax ([3]; 15 mg orally administered to humans, read-out: maximum blood concentration (Cmax)) [µM] | half-life ([3]; reported) | bands for soluble and insoluble fractions of TDP-43 [4] | average proportion of insoluble fractions of TDP-43 [4] | soluble fractions versus insoluble fractions of TDP-43 in the cells (TDP-43) | proportion of insoluble fractions based on a total number of soluble fractions and insoluble fractions of TDP-43 (TDP-43) | side effects ([5]; 150 mg administered to humans) | side effects ([5]; 250 mg administered to humans in order to treat tuberculosis) | EC50 [6] [nM] | inhibition of cell death [6] | side effects ([5]; administered to humans, dose not stated)
1 | N[C@@H]1CONC1=O [D-cycloserine, (4R)-4-Amino-1,2-oxazolidin-3-one] | bands for soluble fractions of TDP-43 were clearly observed, and bands for insoluble fractions were unclear | > 128 | ~5.6 | about 10 hours | bands for soluble fractions of TDP-43 were clearly observed, and bands for insoluble fractions were unclear | about 17.4% | the number of soluble fractions of TDP-43 was larger than the number of insoluble fractions of TDP-43 | less than half | causes headaches | serious side effects such as epileptiform seizure and mental confusion | 128 | cell death was inhibited; also recorded: exhibited an effect of inhibiting cell death in a concentration-dependent manner | 
2 | N[C@H]1CONC1=O [L-cycloserine, (4S)-4-amino-1,2-oxazolidin-3-one] |  |  |  |  |  |  | the number of soluble fractions of TDP-43 was larger than the number of insoluble fractions of TDP-43 | less than half |  |  | 237 | exhibited an effect of inhibiting cell death in a concentration-dependent manner | 
3 | CC(=O)NCCCS(=O)(=O)O [acamprosate, 3-(acetylamino)propylsulfonic acid] |  |  |  |  |  |  |  |  |  |  |  |  | anaphylaxis associated with symptoms such as generalized skin rash, rash, urticaria, stomatitis, laryngospasm, and shortness of breath; also recorded: angioedema associated with symptoms such as tongue swelling and lymphadenopathy
4 | CCCN(CCC)CCc1cccc2c1CC(=O)N2 [ropinirole] | bands for soluble fractions of TDP-43 were clearly observed, and bands for insoluble fractions were unclear |  |  |  | bands for soluble fractions of TDP-43 were clearly observed, and bands for insoluble fractions were unclear | about 19.3% |  |  |  |  | 198 |  | 
